# Patent US8455240B2, “Use of thermophilic sulphate-reducing archaea for the implementation of a process for the degradation of hydrocarbons” (Institut de Recherche pour le Development (I.R.D.), priority 2005, dated 2013)
# Values joined by “and” are separate entries in the source; they are usually repeats but may differ in a detail not shown here. Equal entries are not always repeated.
# Assays:
# strain L-3 [1] = assay: Monitoring of thiosulphate during the degradation of fatty acids by L-3; assay type: cell-based, Archaeoglobus fulgidus CNCM I-3465 (strain L-3); conditions: end of May 2005; E1/E2 replicates; listed as C8 fatty acid
# Procedure: (§1) The thiosulphate and sulphate assays are carried out by ion chromatography.
# (§2) The analyses are carried out with a chromatograph (Compact IC 761, Metrohm) equipped with: • A […] ion-exchange column (Metrosep A SUPP 1-250 (6.1005.300)), size 4.6*250 mm; • The eluent used is Na2CO3 at a concentration of 3 mmol/l, at a flow rate of 1 to 2.5 ml/min; ((→the flow rate varies during the analysis)) • A sample processor (Metrohm 838); • A conductimeter; • A computer where the results are recorded, integrated and analyzed by software (761 Compact IC, Metrohm). III.3.2. Operating Method
# (§3) The operating conditions are such that the temperature is 20° C. and the pressure is 5 MPa. The samples to be analyzed are filtered. The injection volume is 20 μl. The detection is of conductimetric electrochemical type with chemical suppression allowing elution gradients.
# (§4) Monitoring of thiosulphate during the degradation of fatty acids by A. fulgidus and by L-3
# [2] = test system: Archaeoglobus fulgidus DSM 4304; assay: Monitoring of thiosulphate during the degradation of fatty acids by A. fulgidus; assay type: cell-based; conditions: end of May 2005, E1/E2 replicates
# Procedure: as §1, §2, §3, §4
# strain L-3 [3] = assay: Sources of carbon and energy used by the strain L-3; assay type: cell-based, Archaeoglobus fulgidus CNCM I-3465 (strain L-3); conditions: for OD 580 nm Initial / H2S (480 nm) / OD 580 nm Final: thiosulphate as electron acceptor
# Procedure: (§5) Experimentally, 4 ml of Cord-Ruwish reagent comprising 50 mmol/l of HCl and 5 mmol/l of CuSO4 are added to 0.1 ml of sample. Copper sulphate (CuSO4) by reacting with hydrogen sulphide (H2S), forms a copper sulphide precipitate (CuS) after the reaction: CuSO4+H2S→CuS+H2SO4
# (§6) According to this method, the CuS is assayed by spectrophotometry at 480 nm. The readings are carried out against a blank constituted by 4 ml of Cord-Ruwish reagent.
# (§7) The analysis and quantification of the metabolites are carried out by HPLC by measuring the disappearance of the substrate and the appearance of different metabolism products.
# The study of the growth of the strain L-3 in the presence of different sources of carbon and energy was carried out with thiosulphate as an electron acceptor. The monitoring was carried out by estimation of the cell biomass (OD 580 nm), by assay of the sulphide production (Cord-Ruwish). The results were confirmed by HPLC analyses, and completed in certain cases by a CO2 assay.
# Archaeoglobus fulgidus = assay: Screening for hydrocarbon degradation, A. fulgidus (sulphide production, Cord-Ruwish); assay type: cell-based; conditions: for ΔS tf-ti: final minus initial sulphide
# Procedure: as §5, §6
# The study of the hydrocarbon degradation abilities is an experiment which requires a particularly long incubation. Thus, it was carried out in Bellco tubes sealed with thick rubber stoppers.
# For these experiments, tubes containing 10 ml of culture medium without substrate, are 10% inoculated, then the hydrocarbon is introduced by injection through the stopper.
# The hydrocarbons chosen are model molecules belonging to the different classes of hydrocarbons, namely: • hexadecane (CH3(CH2)14CH3, C16), a saturated linear aliphatic hydrocarbon; • hexadecene (CH3(CH2)13CHCH2, C16:1), an unsaturated linear aliphatic hydrocarbon of biogenic origin; • dibenzothiophene (DBT, C12H8S), a sulphur-containing aromatic hydrocarbon.
# The aliphatic hydrocarbons (C16; C16:1) are added to the corresponding tubes, at a rate of 0.04 ml/10 ml of culture medium. The aromatic hydrocarbons (DBT) are solubilized in 2,2,4,4,6,8,8-heptamethylnonane (HMN, C16H34) at a rate of 20 mg/ml of HMN, and 0.75 ml of this solution is injected into 10 ml of culture medium.
# 3 tubes were produced for each test and control. The growth of the strains was monitored indirectly by the production of sulphide.
# A subculture was carried out starting from the preceding experiment on naphthalene, DBT solubilized as previously in HMN, and on HMN alone, for the two strains studied.
# [4] = test system: Archaeoglobus fulgidus (DSM 4304); assay: Degradation of different substrates by A. fulgidus as a function of the electron acceptor; assay type: cell-based; conditions: for ability of Archaeoglobus fulgidus to oxidize the substrate: thiosulphate or sulphate as electron acceptor
# Procedure: as §5, §6, §7
# (§8) The study of the degradation abilities of different substrates of the strain L-3 was based on a comparison with the collection strain, Archaeoglobus fulgidus (DSM 4304). The degradation of the substrates, by the two strains was monitored by a measurement of the cell biomass at 580 nm, a sulphide assay produced according to the Cord-Ruwish method, a study of the degradation metabolites by HPLC, completed by a CO2 assay with a GPC-Katharometer.
# (§9) Two series of tests were prepared, one with thiosulphate, the other with sulphate as an electron acceptor.
# strain L-3 [5] = assay: Degradation of different substrates by the strain L-3 as a function of the electron acceptor; assay type: cell-based, Archaeoglobus fulgidus CNCM I-3465 (strain L-3); set-up: total H2S: unit not given here; conditions: for ability of the strain L-3 to degrade the substrate: thiosulphate or sulphate as electron acceptor
# Procedure: as §5, §6, §7, §8, §9
# [6] = sulphate as electron acceptor, unit from b116
# [7] = thiosulphate as electron acceptor
# [8] = thiosulphate as electron acceptor, unit from b116
Compound,OD 580 nm Initial (strain L-3 [3]),H2S (480 nm) (strain L-3 [3]; unit from b126),final OD 580 ([4]; sulphate as electron acceptor),initial OD 580 ([4]; sulphate as electron acceptor),"final OD 580 [4, 7]","initial OD 580 [4, 7]",final OD 580 (strain L-3 [5]; sulphate as electron acceptor),initial OD 580 (strain L-3 [5]; sulphate as electron acceptor),total H2S (strain L-3 [5]; sulphate as electron acceptor),final OD 580 (strain L-3 [5]; [7]),initial OD 580 (strain L-3 [5]; [7]),total H2S (strain L-3 [5]; [7]),OD 580 nm Final (strain L-3 [3]),also measured
CCCCCCCC(=O)O [octanoate],,,,,,,,,,,,,,"thiosulphate, end of May 2005 (strain L-3 [1]): 9.56 and mM and 9.33 mM; thiosulphate, end of May 2005 ([2]; listed as C8 fatty acid): 8.2 mM and 9.27 mM"
Starch,0.8834 and 0.8614,0.8 mM and 0.7 mM,,,,,,,,,,,,
hexadecene [C16:1],,,,,,,,,,,,,,"sulphide production (OD 480) 0 d (Archaeoglobus fulgidus; 0 d, aromatics solubilized in HMN): 0.8 mM and 0.6 mM; sulphide production (OD 480) 45 d (Archaeoglobus fulgidus; 45 d): 3.6 mM and 4.3 mM; ΔS tf-ti (Archaeoglobus fulgidus): approximately 3 mM; ΔS tf-ti (Archaeoglobus fulgidus; listed as C16: 1): 2.8 mM and 3.0 mM and 3.5 mM"
CCCCCCCCC(=O)O [nonanoate],,,,,,,,,,,,,,"thiosulphate, end of May 2005 ([2]; listed as C9 fatty acid): 7.65 mM and 10.52 mM"
O=CO [Formate],0.0765 and 0.0875,0.2 mM and 0.4 mM,0.1 and 0.1157,0.0805 and 0.0853,0.1218 and 0.1208,0.1107 and 0.1183,0.0711 and 0.064,0.0585 and 0.0634,2.5 and 5,0.1048 and 0.1186,0.1003 and 0.1241,3.6 and 2.8,0.0672 and 0.0759,"total H2S [4, 6]: 3.6 mM and 5 mM; total H2S [4, 8]: 5.8 mM and 7.4 mM; ability of Archaeoglobus fulgidus to oxidize the substrate [4]: capable of oxidizing; ability of the strain L-3 to degrade the substrate (strain L-3 [5]): does not develop"
"O=C(CO)[C@@H](O)[C@H](O)[C@H](O)CO [Fructose, fructose]",0.0663 and 0.0818,0.3 mM,,,,,,,,,,,0.1003 and 0.0893,"HPLC analyses, initial quantity of the substrate (strain L-3 [3]; no increase in biomass or sulphide, explained by isomerization at high temperature): reduction in the initial quantity of the substrate"
O=C(O)/C=C/C(=O)O [Fumarate],,,0.1122 and 0.14,0.0759 and 0.085,0.1399 and 0.1535,0.1085 and 0.117,0.1085 and 0.0899,0.0606 and 0.062,2.5 and 3.3,0.1431 and 0.1137,0.1083 and 0.0796,3.2 and 2.5,,"total H2S [4, 6]: 2.4 mM and 3.1 mM; total H2S ([4]; sulphate as electron acceptor, unit from b116, listed as fumarate): ≤ 3.1 mM; total H2S [4, 8]: 5.1 mM and 6.5 mM; total H2S ([4]; thiosulphate as electron acceptor, unit from b116, listed as fumarate): 6.5 mM; ability of Archaeoglobus fulgidus to oxidize the substrate [4]: capable of oxidizing; ability of the strain L-3 to degrade the substrate (strain L-3 [5]): capable of degrading"
"CC(=O)C(=O)O [Pyruvate, pyruvate]",0.067 and 0.0713,,0.1643 and 0.1575,0.1281 and 0.1377,0.3668 and 0.3489,0.1368 and 0.1351,0.0958 and 0.0944,0.0603 and 0.0636,3.5 and 3.3,0.1161 and 0.0863,0.0785 and 0.0911,4,0.1315 and 0.1758,total H2S ([4]; sulphate as electron acceptor): 10.3 mM and 7.3 mM; H2S (480 nm) (strain L-3 [3]): 5.2 mM
"CCC(=O)O [Propionate, propionate]",0.0669 and 0.0717,0.3 mM,,,,,,,,,,,0.0871 and 0.072,
O=C(O)CCC(=O)O [Succinate],0.0845 and 0.0791,0.3 mM,,,,,,,,,,,0.0659 and 0.0672,
